Laboratory results from US9868722B2, “Monocyclic pyrimidine/pyridine compounds as inhibitors of P97 complex” (Cleave Biosciences, Inc., priority 2013, dated 2018).
Where two headings read alike, the source gives them in different places.

Columns and labels:
p97 = p97 (Homo sapiens, UniProt P55072); assay: P97 ATPase biochemical assay (ADP Glo)
Protocol: The ATPase assay is performed according the following protocol: Purified enzyme (20 nM p97), substrate (20 μM ATP) and a dose titration of compounds are mixed in buffer (50 mM TRIS pH 7.5, 20 mM MgCl2, 0.02% TX-100, 1 mM DTT, 0.2% (v/v) glycerol) and incubated at 37° C. for 15 minutes. The reaction is terminated and the level of product generated is measured using the ADP Glo Assay Kit (Promega, Madison Wis.). Plotting product generated versus compound concentration and using a four-parameter fit model generates an IC50 value for each compounds.
The p97 assay is an initial screening assay used to determine inhibitory activity of the monocyclic pyrimidine compounds of the invention against the p97 complex. As discussed above, inhibition of activity of the p97 proteosome complex can enable apoptosis and cause elimination of neoplastic cells (cancer cells). The method follows that of Christianson in Nat. Cell Biol., (2011) 14:93.
Assay Buffer is a mixture of 50 mM TRIS pH 7.5, 20 mM MgCl2, 0.02% TX-100, 1 mM DTT and 0.2% (v/v) Glycerol. The well plate is Platetype: Corning 3674, 384w plate. The identification kit is an ADP glo kit (Promega): stop buffer, detection reagent.
Serial dilute compound in DMSO in a 1:3.33-fold 10 point serial dilution.
0.5 μL compound serial diluted in DMSO (Final Conc. 10%)
2 μL ATP (Final Conc.=20 uM, diluted in assay buffer)
2.5 μL p97 (Final Conc.=20 nM, diluted in assay buffer)
Incubate at 37 degC for 15 min.
Add 5 μL of stop buffer, incubate at RT for 40 min.
Add 10 μL of detection reagent, incubate at RT for 30 min.
Read luminescence on Envision plate reader. • Upon obtaining the data from the luminescence reading, the data may be analyzed as follows:
Normalize luminescence data using no enzyme (full inhibition) and no compound (no inhibition) controls. Plot normalized luminescence data against log-transformed concentration values and fit to a sigmoidal curve to determine IC50 values (done in Collaborative Drug Discovery software).
The results are reported on the following Table for Examples A-EE and the E1-E4 compounds as 50 percent Inhibitory concentration at candidate doses of less than 30 nM, less than 100 nM, less than 300 nM and less than 1000 nM for the p97 inhibition assay.

[1] = tested on: K48 poly-Ubiquitin accumulation in A549 cells; assay: A549 K48 poly-ubiquitin accumulation immunofluorescence assay; assay type: cell-based; settings: Homo sapiens
Protocol: Image-analysis is used to generate quantitative data from these assays that can be fit to a four-parameter sigmoid curve to derive IC50 values. Substrates of the ubiquitin-proteasome system, such as p53, are monitored after tumor cell lines are incubated with compounds for several hours. Accumulation of these proteins indicates an inhibition of proteasome-mediated degradation. Accumulation of lysine-48 chain linkage of poly-ubiquitin is also monitored by immunofluorescence as an indicator of ubiquitin-proteasome system inhibition. Both LC3 and SQSTM1 are mediators of autophagy. The localization and amounts of these proteins are monitored by immunofluorescence and report on the activity and inhibition of autophagy in response to p97 inhibition.
(§1) Plate 25 μL of A549 cells in every well of 384-well plate using multidrop.
Two (2) black plates for IF at 2500 cells/well
Serial dilute compounds with a 10 point 2-fold serial dilution in DMSO to make 250× stock compound solution Dilute compounds 1:125 in cell culture media to make a 2× solution Add 25 μl of dilution compounds to cell plates in well duplicates Put cells back in incubator (6 hr incubation for black plates, 72 hr incubation for white plates).
Incubate cells in black plates with compound at 37 degC for 6 hrs. add 15 μL of 16% Paraformaldehyde (PFA) directly into media of each well, incubate at room temp for 5 min, flick plate and wash in 50 μL of PBS block in 50 μL of Blocking Buffer for 30 minutes (can go up to several hours) Blocking buffer: 1×PBS, 1% BSA, 0.3% Triton-X100, Hoechst (1:10,000) incubate in 25 μL of primary antibody in blocking buffer at 4 degC over night […]
Secondary Antibodies: • AlexaFluor488 Goat anti-Rabbit 1:2,000 (Life Tech A11008) • AlexaFluor555 Goat anti-Mouse 1:2,000 (Life Tech A21422) incubate in 25 μl of secondary antibody (1:2,000) in blocking buffer for 1-2 hrs at room temp (alexafluor488-anti-Rabbit/alexafluor555-anti-Mouse) Image plates in high content microscope with 405 nm, 488 nm and 555 nm filters Nuclear counts and cellular intensities of each markers are measured using Hoechst as a nuclear marker with an automated image analysis protocol using Matlab software (Math Works) The results are reported on the following Table I for Examples A-EE and the E1-E4 compounds as 50 percent Inhibitory concentration at candidate doses of less than 1 μM, less than 3 μM and less than 10 μM for both of the K48 antibody and the p53 (CTG) antibody assays

A549 cells = assay: Cultured cancer cell viability assay (cell titer glo, A549 CTG); assay type: cell-based; settings: Homo sapiens
From the text: Anti-tumor effects are monitored in cultured cancer cells after several days of compound treatment. The cell titer glo assay (Promega) measures the amount of ATP present as a proxy for cellular viability. Cellular counting is done using high-content microscopy followed by image analysis. A hanging drop 3D-culture system (3D Biomatrix) is used followed by cell titer glo to measure growth in a tumor-like environment.
The cellular assay provides information about the anti-neoplastic activity of the compounds of the invention. The compounds are tested against cultured cancer cells to determine whether or not the compounds of the invention are capable of intersecting with cancer cells to minimize or eliminate such cells. The assay involves establishing colonies of such cells and then treating them with the test compound under specified conditions and analysis regime to determine results.
as §1
One (1) white plate for viability at 500 cells/well.
Serial dilute compounds with a 10 point 2-fold serial dilution in DMSO to make 250× stock compound solution
Dilute compounds 1:125 in cell culture media to make a 2× solution Add 25 μl of dilution compounds to cell plates in well duplicates
Put cells back in incubator (6 hr incubation for black plates, 72 hr incubation for white plates).
Thaw an aliquot of frozen cell titer glo (Promega G7572) at room temperature.
Add 45 mL of NaCl/PBS solution to 5 ml of cell titer glo (10×).
Remove white plates from incubator, leave at room temp for 30 minutes.
Add 25 μl of diluted cell titer glo to each well.
Shake plate for >1 minute.
Incubate plate for >5 minutes to stabilize luminescence. • Luminescence is stable for up to 3 hours.
Read luminescence on plate reader
The results are reported on the following Table I for Examples A-EE and the E1-E4 compounds as 50 percent Inhibitory concentration at candidate doses of less than 1 μM, less than 3 μM and less than 10 μM for both of the K48 antibody and the p53 (CTG) antibody assays

[2] = 20 nM p97, 20 uM ATP, 37 degC 15 min
[3] = A549 cells, 6 hr incubation, K48-Ub antibody, read-out: A549 K48 IC50
[4] = A549 cells, 72 hr incubation, cell titer glo, read-out: A549 CTG IC50

Sequence of p97 (P55072 whole entry): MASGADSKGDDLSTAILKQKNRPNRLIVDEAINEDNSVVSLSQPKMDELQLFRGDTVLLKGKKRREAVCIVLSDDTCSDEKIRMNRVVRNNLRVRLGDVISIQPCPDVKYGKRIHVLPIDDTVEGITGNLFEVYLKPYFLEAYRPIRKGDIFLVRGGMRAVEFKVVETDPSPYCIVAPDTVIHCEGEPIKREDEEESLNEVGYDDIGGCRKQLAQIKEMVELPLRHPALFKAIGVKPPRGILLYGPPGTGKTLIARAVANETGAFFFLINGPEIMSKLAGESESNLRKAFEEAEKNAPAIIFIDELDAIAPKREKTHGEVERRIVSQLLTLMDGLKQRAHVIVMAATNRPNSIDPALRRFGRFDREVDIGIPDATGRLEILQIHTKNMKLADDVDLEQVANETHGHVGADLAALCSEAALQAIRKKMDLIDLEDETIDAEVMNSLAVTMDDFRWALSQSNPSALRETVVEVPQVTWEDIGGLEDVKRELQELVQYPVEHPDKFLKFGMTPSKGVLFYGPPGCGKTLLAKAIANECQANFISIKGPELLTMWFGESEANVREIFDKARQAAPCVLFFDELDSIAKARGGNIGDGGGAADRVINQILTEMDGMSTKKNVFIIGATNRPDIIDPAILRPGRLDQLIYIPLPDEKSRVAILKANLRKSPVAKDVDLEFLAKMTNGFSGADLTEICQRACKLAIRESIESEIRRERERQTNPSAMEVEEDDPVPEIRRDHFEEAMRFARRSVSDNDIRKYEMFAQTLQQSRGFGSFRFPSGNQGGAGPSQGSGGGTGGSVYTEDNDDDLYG

Row | SMILES | IC50 (p97; [2]) [nM] | IC50 [1, 3] [nM] | IC50 (A549 cells; [4]) [nM] | IC50 (p97; Table II, preliminary assays) [nM] | IC50 ([1]; A549, Table II, preliminary assays, read-out: K48 poly-Ubiquitin Accumulation) [nM] | IC50 (A549 cells; A549, Table II, preliminary assays, read-out: Cell Titre Glow Assay IC50) [nM]
1 | Cc1nc(-n2ncc3c(C(N)=O)cccc32)nc(NCc2ccccc2)c1C(C)C [Example 11, 1-(4-(benzylamino)-5-isopropyl-6-methylpyrimidin-2-yl)-1H-indazole-4-carboxamide] | < 300 | < 3000 | < 3000 | – | – | –
2 | Cc1nc(-n2c(C)cc3c(C(N)=O)cccc32)nc(NCc2ccccc2)c1N(C)C [Example 15, 1-[4-(benzylamino)-5-(dimethylamino)-6-methylpyrimidin-2-yl]-2-methyl-1H-indole-4-carboxamide] | < 30 | < 3000 | < 3000 | – | – | –
3 | Cc1cc2c(C(N)=O)cccc2n1-c1ncc(S(C)(=O)=O)c(NCc2ccccc2)n1 [Example 19, 1-[4-(benzylamino)-5-(methylsulfonyl)pyrimidin-2-yl]-2-methyl-1H-indole-4-carboxamide] | < 100 | < 3000 | < 3000 | – | – | –
4 | CC(=O)NCc1cnc(-n2c(C)cc3c(C(N)=O)cccc32)nc1NCc1ccccc1 [Example 24, 1-[4-(benzylamino)-5-(acetamidomethyl)pyrimidin-2-yl]-2-methyl-1H-indole-4-carboxamide] | < 300 | < 10000 | < 10000 | – | – | –
5 | COc1cnc(-n2c(CN)cc3c(C(N)=O)cccc32)nc1NCc1ccccc1 [Example 29, 2-(aminomethyl)-1-(4-(benzylamino)-5-methoxypyrimidin-2-yl)-1H-indole-4-carboxamide] | < 100 | < 1000 | < 3000 | – | – | –
6 | CC(C)c1cnc(-n2c(CN)cc3c(C(N)=O)cccc32)nc1NCc1ccccc1 [Example 30, 2-(aminomethyl)-1-[4-(benzylamino)-5-(propan-2-yl)pyrimidin-2-yl]-1H-indole-4-carboxamide] | < 100 | < 3000 | < 3000 | – | – | –
7 | COc1nc(-n2c(C)cc3c(C(N)=O)cccc32)nc(NCc2ccccc2)c1C [Example 33, 1-(4-(benzylamino)-6-methoxy-5-methylpyrimidin-2-yl)-2-methyl-1H-indole-4-carboxamide] | < 30 | < 3000 | < 10000 | – | – | –
8 | CNCc1nc(-n2c(C)cc3c(C(N)=O)cccc32)nc(NCc2ccccc2)c1C [Example 36, 1-[4-(benzylamino)-5-methyl-6-[(methylamino)methyl]pyrimidin-2-yl]-2-methyl-1H-indole-4-carboxamide] | < 100 | < 10000 | < 10000 | – | – | –
9 | COc1cnc(-n2c(C)cc3c(CN)cccc32)nc1NCc1ccccc1 [Example 37, 2-[4-(aminomethyl)-2-methyl-1H-indol-1-yl]-N-benzyl-5-methoxypyrimidin-4-amine] | < 1000 | < 3000 | < 10000 | – | – | –

The remaining lines, values ahead:

Row | IC50 (p97; [2]) [nM] | IC50 [1, 3] [nM] | IC50 (A549 cells; [4]) [nM] | IC50 (p97; Table II, preliminary assays) [nM] | IC50 ([1]; A549, Table II, preliminary assays, read-out: K48 poly-Ubiquitin Accumulation) [nM] | IC50 (A549 cells; A549, Table II, preliminary assays, read-out: Cell Titre Glow Assay IC50) [nM] | SMILES
10 | < 30 | < 3000 | < 1000 | 9 | 640 | 730 | Cc1cc2c(C(N)=O)cccc2n1-c1ncc(C(C)C)c(NCc2ccccc2)n1 [Example 12, 1-(4-(benzylamino)-5-(propan-2-yl)pyrimidin-2-yl)-2-methyl-1H-indole-4-carboxamide]
11 | < 30 | < 1000 | < 3000 | – | – | – | Cc1cc2c(C(N)=O)cccc2n1-c1ncc(N(C)C)c(NCc2ccccc2)n1 [Example 13, 1-(4-(benzylamino)-5-(dimethylamino)pyrimidin-2-yl)-2-methyl-1H-indole-4-carboxamide]
12 | < 300 | < 3000 | < 10000 | – | – | – | COCc1cnc(-n2c(C)cc3c(C(N)=O)cccc32)nc1NCc1ccccc1 [Example 18, 1-[4-(benzylamino)-5-(methoxymethyl)pyrimidin-2-yl]-2-methyl-1H-indole-4-carboxamide]
13 | < 100 | < 3000 | < 3000 | – | – | – | Cc1cc2c(C(N)=O)cccc2n1-c1ncc(OC(C)C)c(NCc2ccccc2)n1 [Example 26, 1-[4-(benzylamino)-5-(propan-2-yloxy)pyrimidin-2-yl]-2-methyl-1H-indole-4-carboxamide]
14 | < 30 | < 3000 | < 3000 | – | – | – | CCOc1cnc(-n2c(C)cc3c(C(N)=O)cccc32)nc1NCc1ccccc1 [Example 27, 1-[4-(benzylamino)-5-ethoxypyrimidin-2-yl]-2-methyl-1H-indole-4-carboxamide]
15 | < 100 | < 3000 | < 10000 | – | – | – | COCCOc1cnc(-n2c(C)cc3c(C(N)=O)cccc32)nc1NCc1ccccc1 [Example 28, 1-[4-(benzylamino)-5-(2-methoxyethoxy)pyrimidin-2-yl]-2-methyl-1H-indole-4-carboxamide]
16 | < 30 | < 3000 | < 3000 | – | – | – | Cc1cc2c(C(N)=O)cccc2n1-c1ncc(C(C)O)c(NCc2ccccc2)n1 (stereo not drawn) [Example 34, 1-[4-(benzylamino)-5-(1-hydroxyethyl)pyrimidin-2-yl]-2-methyl-1H-indole-4-carboxamide]
17 | < 100 | < 10000 | < 10000 | – | – | – | Cc1cc2c(C(N)=O)cccc2n1-c1ncc(C(C)N)c(NCc2ccccc2)n1 (stereo not drawn) [Example 35, 1-[5-(1-aminoethyl)-4-(benzylamino)pyrimidin-2-yl]-2-methyl-1H-indole-4-carboxamide]
